Test: molar heat capacity at constant volume
Details: Vacuum adiabatic calorimetry

Cc1ccccc1 [toluene]
Fluid (supercritical or subcritical phases)
Details | molar heat capacity at constant volume [J/K/mol]
386.9 K, Mass density=777.8 kg/m3 | 147.79
387.48 K, Mass density=777.8 kg/m3 | 147.7
387.84 K, Mass density=777.8 kg/m3 | 146.41
388.65 K, Mass density=777.8 kg/m3 | 146.96
392.83 K, Mass density=777.8 kg/m3 | 145.67
393.6 K, Mass density=777.8 kg/m3 | 144.01
399.34 K, Mass density=777.8 kg/m3 | 146.68
411.33 K, Mass density=777.8 kg/m3 | 148.9
413.55 K, Mass density=777.8 kg/m3 | 149.08
545.3 K, Mass density=555.25 kg/m3 | 189.99
545.51 K, Mass density=555.25 kg/m3 | 189.07
545.84 K, Mass density=555.25 kg/m3 | 188.79
545.93 K, Mass density=555.25 kg/m3 | 189.44
548.72 K, Mass density=555.25 kg/m3 | 187.41
549.32 K, Mass density=555.25 kg/m3 | 189.25
550.41 K, Mass density=555.25 kg/m3 | 188.52
589.54 K, Mass density=214.64 kg/m3 | 349.57
589.66 K, Mass density=214.64 kg/m3 | 307.47
589.72 K, Mass density=214.64 kg/m3 | 299.45
589.84 K, Mass density=214.64 kg/m3 | 280.47
590.03 K, Mass density=214.64 kg/m3 | 271.9
590.09 K, Mass density=214.64 kg/m3 | 264.9
590.51 K, Mass density=214.64 kg/m3 | 250.8
590.58 K, Mass density=214.64 kg/m3 | 252.92

molar heat capacity at constant volume [J/K/mol]
Details | 386.9 K | 545.3 K | 589.54 K | 591.72 K | 591.84 K | 591.85 K | 591.87 K | 591.88 K
Gas | – | – | 349.57 | 385.6 | 425.4 | – | – | –
Liquid | 147.79 | 189.99 | – | – | – | 331.51 | 422.18 | 442.26

Reference: the NIST ThermoML archive (doi:10.1016/j.fluid.2007.09.023)
